Assay results as given in article PMC12736255, “Reinvestigating Pyrrol-2-One-Based Compounds: From Antimicrobial Agents to Promising Antitumor Candidates” (Pharmaceuticals, 2025).

Key:
Assay in all cases: NCI-60 single-dose screen
Format in all cases: cell-based
RPMI-8226 = settings: Homo sapiens; RPMI-8226, 10^–5 M; read-out: GI (%)
Text: (§1) In the next step, all synthesized compounds were electronically submitted and accepted for testing to the National Cancer Institute (NCI) platform, for the single dose (10^−5 M) screening against a panel of 60 human tumor cell lines, representing leukemia, melanoma, and cancers of the lung, colon, central nervous system, ovary, kidney, prostate, and breast. The results are summarized in Table 2, with the best values highlighted in red (Figures S1–S14).

KM12 = settings: Homo sapiens; KM12, 10^–5 M; read-out: GI (%)
Text: as §1

T-47D = settings: Homo sapiens, T47D, 10^–5 M, read-out: GI (%)
Text: as §1

HCT-116 = settings: Homo sapiens; HCT-116, 10^–5 M; read-out: GI (%)
Text: as §1

OVCAR-3 = settings: Homo sapiens; OVCAR-3, 10^–5 M; read-out: GI (%)
Text: as §1

SR = settings: Homo sapiens, 10^–5 M, read-out: GI (%)
Text: as §1

UACC-62 = settings: Homo sapiens; UACC-62, 10^–5 M; read-out: GI (%)
Text: as §1

786-0 = settings: Homo sapiens; 786-0, 10^–5 M; read-out: GI (%)
Text: as §1

SK-OV-3 = settings: Homo sapiens; SK-OV-3, 10^–5 M; read-out: GI (%)
Text: as §1

OVCAR-4 = settings: Homo sapiens; OVCAR-4, 10^–5 M; read-out: GI (%)
Text: as §1

CAKI-1 = settings: Homo sapiens; CAKI-1, 10^–5 M; read-out: GI (%)
Text: as §1

NCI/ADR-RES = settings: Homo sapiens, 10^–5 M, read-out: GI (%)
Text: as §1

M14 = settings: Homo sapiens; M14, 10^–5 M; read-out: GI (%)
Text: as §1

HOP-92 = settings: Homo sapiens; HOP-92, 10^–5 M; read-out: GI (%)
Text: as §1

HCT-15 = settings: Homo sapiens; HCT-15, 10^–5 M; read-out: GI (%)
Text: as §1

A549/ATCC = settings: Homo sapiens, 10^–5 M, read-out: GI (%)
Text: as §1

HS 578T = settings: Homo sapiens, 10^–5 M, read-out: GI (%)
Text: as §1

OVCAR-5 = settings: Homo sapiens; OVCAR-5, 10^–5 M; read-out: GI (%)
Text: as §1

OVCAR-8 = settings: Homo sapiens; OVCAR-8, 10^–5 M; read-out: GI (%)
Text: as §1

SK-MEL-5 = settings: Homo sapiens; SK-MEL-5, 10^–5 M; read-out: GI (%)
Text: as §1

COLO205 = settings: Homo sapiens, COLO 205; COLO205, 10^–5 M; read-out: GI (%)
Text: as §1

K-562 = settings: Homo sapiens, K562; K-562, 10^–5 M; read-out: GI (%)
Text: as §1

PC-3 = settings: Homo sapiens, PC-3, PC-3, 10^–5 M; read-out: GI (%)
Text: as §1

IGROV1 = settings: Homo sapiens, IGROV-1; IGROV1, 10^–5 M; read-out: GI (%)
Text: as §1

NCI-H522 = settings: Homo sapiens; NCI-H522, 10^–5 M; read-out: GI (%)
Text: as §1

NCI-H460 = settings: Homo sapiens; NCI-H460, 10^–5 M; read-out: GI (%)
Text: as §1

NCI-H23 = settings: Homo sapiens; NCI-H23, 10^–5 M; read-out: GI (%)
Text: as §1

CCRF-CEM = settings: Homo sapiens, 10^–5 M, read-out: GI (%)
Text: as §1

HL-60(TB) = settings: Homo sapiens, 10^–5 M, read-out: GI (%)
Text: as §1

SNB-75 = settings: Homo sapiens; SNB-75, 10^–5 M; read-out: GI (%)
Text: as §1

ACHN = settings: Homo sapiens, 10^–5 M, read-out: GI (%)
Text: as §1

LOX IMVI = settings: Homo sapiens, 10^–5 M, read-out: GI (%)
Text: as §1

SNB-19 = settings: Homo sapiens; SNB-19, 10^–5 M; read-out: GI (%)
Text: as §1

HT-29 = settings: Homo sapiens; HT-29, 10^–5 M; read-out: GI (%)
Text: as §1

MDA-MB-231/ATCC = settings: Homo sapiens, 10^–5 M, read-out: GI (%)
Text: as §1

SF-539 = settings: Homo sapiens; SF-539, 10^–5 M; read-out: GI (%)
Text: as §1

UACC-257 = settings: Homo sapiens; UACC-257, 10^–5 M; read-out: GI (%)
Text: as §1

NCI-H322M = settings: Homo sapiens, 10^–5 M, read-out: GI (%)
Text: as §1

| SMILES | inhibition at 10 µM (RPMI-8226) | inhibition at 10 µM (KM12) | inhibition at 10 µM (T-47D) | inhibition at 10 µM (HCT-116) | inhibition at 10 µM (OVCAR-3) | inhibition at 10 µM (SR) | inhibition at 10 µM (UACC-62) | inhibition at 10 µM (786-0) | inhibition at 10 µM (SK-OV-3) | inhibition at 10 µM (OVCAR-4) | inhibition at 10 µM (CAKI-1) | inhibition at 10 µM (NCI/ADR-RES) | inhibition at 10 µM (M14) | inhibition at 10 µM (HOP-92) | inhibition at 10 µM (HCT-15) | inhibition at 10 µM (A549/ATCC) | inhibition at 10 µM (HS 578T) | inhibition at 10 µM (OVCAR-5) | inhibition at 10 µM (OVCAR-8) | inhibition at 10 µM (SK-MEL-5) | further results |
| --- | --- | --- | --- | --- | --- | --- | --- | --- | --- | --- | --- | --- | --- | --- | --- | --- | --- | --- | --- | --- | --- |
| O=C1C(Nc2ccc(I)cc2)=CC(c2ccc(Br)cc2)N1c1ccc(I)cc1 (stereo not shown) [3d] | 34% | 17% | 49% | 19% | 5% | 0% | 0% | 6% | 0% | 30% | 12% | 0% | 0% | 0% | 13% | 0% | 41% | 0% | 0% | 20% | inhibition at 10 µM (COLO205): 0%; inhibition at 10 µM (K-562): 15%; inhibition at 10 µM (PC-3): 0%; inhibition at 10 µM (IGROV1): 16%; inhibition at 10 µM (NCI-H522): 2%; inhibition at 10 µM (NCI-H460): 0%; inhibition at 10 µM (NCI-H23): 3%; inhibition at 10 µM (CCRF-CEM): 17%; inhibition at 10 µM (HL-60(TB)): 0%; inhibition at 10 µM (SNB-75): 3%; inhibition at 10 µM (ACHN): 15%; inhibition at 10 µM (LOX IMVI): 1%; inhibition at 10 µM (SNB-19): 6%; inhibition at 10 µM (HT-29): 14%; inhibition at 10 µM (MDA-MB-231/ATCC): 0%; inhibition at 10 µM (SF-539): 0%; inhibition at 10 µM (UACC-257): 3%; inhibition at 10 µM (NCI-H322M): 0% |
| O=C1C(Nc2ccc(I)cc2)=CC(c2ccc(C(F)(F)F)cc2)N1c1ccc(I)cc1 (stereo not shown) [3e] | 60% | 35% | 100% | 58% | 72% | 99% | 12% | 76% | 50% | 100% | 91% | 35% | 64% | 62% | 12% | 30% | 100% | 18% | 43% | 0% | inhibition at 10 µM (COLO205): 61%; inhibition at 10 µM (K-562): 16%; inhibition at 10 µM (PC-3): 26%; inhibition at 10 µM (IGROV1): 12%; inhibition at 10 µM (NCI-H522): 53%; inhibition at 10 µM (NCI-H460): 43%; inhibition at 10 µM (NCI-H23): 11%; inhibition at 10 µM (CCRF-CEM): 100%; inhibition at 10 µM (HL-60(TB)): 51%; inhibition at 10 µM (SNB-75): 100%; inhibition at 10 µM (ACHN): 100%; inhibition at 10 µM (LOX IMVI): 7%; inhibition at 10 µM (SNB-19): 71%; inhibition at 10 µM (HT-29): 32%; inhibition at 10 µM (MDA-MB-231/ATCC): 62%; inhibition at 10 µM (SF-539): 37%; inhibition at 10 µM (UACC-257): 100%; inhibition at 10 µM (NCI-H322M): 97% |
| O=C1C(Nc2ccc(I)cc2)=CC(c2cc(C(F)(F)F)cc(C(F)(F)F)c2)N1c1ccc(I)cc1 (stereo not shown) [3f] | 43% | 13% | 100% | 43% | 35% | 47% | 0% | 29% | 10% | 69% | 32% | 7% | 0% | 19% | 17% | 16% | 100% | 9% | 26% | 12% | inhibition at 10 µM (COLO205): 59%; inhibition at 10 µM (K-562): 26%; inhibition at 10 µM (PC-3): 25%; inhibition at 10 µM (IGROV1): 0%; inhibition at 10 µM (NCI-H522): 34%; inhibition at 10 µM (NCI-H460): 35%; inhibition at 10 µM (NCI-H23): 12%; inhibition at 10 µM (CCRF-CEM): 100%; inhibition at 10 µM (HL-60(TB)): 59%; inhibition at 10 µM (SNB-75): 100%; inhibition at 10 µM (ACHN): 49%; inhibition at 10 µM (LOX IMVI): 17%; inhibition at 10 µM (SNB-19): 19%; inhibition at 10 µM (HT-29): 5%; inhibition at 10 µM (MDA-MB-231/ATCC): 42%; inhibition at 10 µM (SF-539): 17%; inhibition at 10 µM (UACC-257): 0%; inhibition at 10 µM (NCI-H322M): 10% |
| O=C1C(Nc2ccc(I)cc2)=CC(c2ccc(O)c(O)c2)N1c1ccc(I)cc1 (stereo not shown) [3h] | 100% | 100% | 65% | 96% | 96% | 100% | 62% | 52% | 64% | 100% | 44% | 35% | 99% | 66% | 84% | 73% | 63% | 22% | 37% | 94% | inhibition at 10 µM (COLO205): 98%; inhibition at 10 µM (K-562): 89%; inhibition at 10 µM (PC-3): > 70%; inhibition at 10 µM (IGROV1): 26%; inhibition at 10 µM (NCI-H522): 82%; inhibition at 10 µM (NCI-H460): 98%; inhibition at 10 µM (NCI-H23): 73%; inhibition at 10 µM (CCRF-CEM): 100%; inhibition at 10 µM (HL-60(TB)): 100%; inhibition at 10 µM (SNB-75): 86%; inhibition at 10 µM (ACHN): 61%; inhibition at 10 µM (LOX IMVI): 57%; inhibition at 10 µM (SNB-19): 69%; inhibition at 10 µM (HT-29): 96%; inhibition at 10 µM (MDA-MB-231/ATCC): 42%; inhibition at 10 µM (SF-539): 72%; inhibition at 10 µM (UACC-257): 68%; inhibition at 10 µM (NCI-H322M): 34% |
| COc1ccc(C2C=C(Nc3ccc(I)cc3)C(=O)N2c2ccc(I)cc2)cc1OC (stereo not shown) [3j] | 7% | 0% | 6% | 0% | 0% | 0% | 0% | 0% | 0% | 0% | 5% | 0% | 0% | 0% | 0% | 5% | 0% | 0% | 0% | 11% | inhibition at 10 µM (COLO205): 9%; inhibition at 10 µM (K-562): 0%; inhibition at 10 µM (PC-3): 0%; inhibition at 10 µM (IGROV1): 0%; inhibition at 10 µM (NCI-H522): 0%; inhibition at 10 µM (NCI-H460): 0%; inhibition at 10 µM (NCI-H23): 8%; inhibition at 10 µM (CCRF-CEM): 0%; inhibition at 10 µM (HL-60(TB)): 0%; inhibition at 10 µM (SNB-75): 0%; inhibition at 10 µM (ACHN): 0%; inhibition at 10 µM (LOX IMVI): 8%; inhibition at 10 µM (SNB-19): 0%; inhibition at 10 µM (HT-29): 0%; inhibition at 10 µM (MDA-MB-231/ATCC): 0%; inhibition at 10 µM (SF-539): 28%; inhibition at 10 µM (UACC-257): 0%; inhibition at 10 µM (NCI-H322M): 0% |
